Measured values taken from paper PMC10141580, “Cyclic Dichalcogenides Extend the Reach of Bioreductive Prodrugs to Harness Thiol/Disulfide Oxidoreductases: Applications to seco-Duocarmycins Targeting the Thioredoxin System” (ACS Central Science, 2023).
Like-named read-outs stand apart in the source and are kept apart here.

Tested on: NCI-60 standardized human tumor cell line panel
Assay: cells
Type: cell-based
[1] = cell line A549/ATCC (LC:A549/ATCC), TMI sheet
[2] = cell line BT-549 (BR:BT-549), TMI sheet
[3] = cell line CCRF-CEM (LE:CCRF-CEM), TMI sheet
[4] = cell line COLO 205 (CO:COLO 205), TMI sheet
[5] = cell line EKVX (LC:EKVX), TMI sheet
[6] = cell line HCC-2998 (CO:HCC-2998), TMI sheet
[7] = cell line HCT-15 (CO:HCT-15), TMI sheet
[8] = cell line HCT-116 (CO:HCT-116), TMI sheet
[9] = cell line HL-60(TB) (LE:HL-60(TB)), TMI sheet
[10] = cell line HOP-62 (LC:HOP-62), TMI sheet
[11] = cell line HOP-92 (LC:HOP-92), TMI sheet
[12] = cell line HT29 (CO:HT29), TMI sheet
[13] = cell line K-562 (LE:K-562), TMI sheet
[14] = cell line KM12 (CO:KM12), TMI sheet
[15] = cell line LOX IMVI (ME:LOX IMVI), TMI sheet
[16] = cell line M14 (ME:M14), TMI sheet
[17] = cell line MALME-3M (ME:MALME-3M), TMI sheet
[18] = cell line MCF7 (BR:MCF7), TMI sheet
[19] = cell line MDA-MB-435 (ME:MDA-MB-435), TMI sheet
[20] = cell line MOLT-4 (LE:MOLT-4), TMI sheet
[21] = cell line NCI-H23 (LC:NCI-H23), TMI sheet
[22] = cell line NCI-H226 (LC:NCI-H226), TMI sheet
[23] = cell line RPMI-8226 (LE:RPMI-8226), TMI sheet
[24] = cell line SF-539 (CNS:SF-539), TMI sheet
[25] = cell line SK-MEL-5 (ME:SK-MEL-5), TMI sheet
[26] = cell line SK-MEL-28 (ME:SK-MEL-28), TMI sheet
[27] = cell line SNB-19 (CNS:SNB-19), TMI sheet
[28] = cell line SR (LE:SR), TMI sheet
[29] = cell line SW-620 (CO:SW-620), TMI sheet
[30] = cell line T-47D (BR:T-47D), TMI sheet
[31] = cell line U251 (CNS:U251), TMI sheet
[32] = cell line UACC-62 (ME:UACC-62), TMI sheet
[33] = cell line UACC-257 (ME:UACC-257), TMI sheet

COc1cc2cc(C(=O)N3CC(CCl)c4c3cc(OC(=O)N3CCN(C)C5CSSCC53)c3ccccc43)[nH]c2c(OC)c1OC (mixture of isomers) [Me-SS66C-CBI-TMI]
GI50 (U251, read-out: GI50): 140 nM | GI50 (UACC-62, read-out: GI50): 150 nM | GI50 (UACC-257, read-out: GI50): 500 nM | NCI-60 screening: Log(GI50) [1]: -6.74 | NCI-60 screening: Log(RedIndex) [1]: 1.04 | NCI-60 screening: Log(GI50) [2]: -6.78 | NCI-60 screening: Log(RedIndex) [2]: 0.98 | GI50 (cell line BT-549 (BR:BT-549), TMI sheet, read-out: NCI-60 screening: Raw GI50): 170 nM | NCI-60 screening: Log(GI50) [3]: -6.98 | NCI-60 screening: Log(RedIndex) [3]: 0.98 | NCI-60 screening: Log(GI50) [4]: -6.48 | NCI-60 screening: Log(RedIndex) [4]: 0.62 | NCI-60 screening: Log(GI50) [5]: -6.64 | NCI-60 screening: Log(RedIndex) [5]: 0.93 | GI50 (cell line EKVX (LC:EKVX), TMI sheet, read-out: NCI-60 screening: Raw GI50): 230 nM | NCI-60 screening: Log(GI50) [6]: -6.84 | NCI-60 screening: Log(RedIndex) [6]: 1.02 | GI50 (cell line HCC-2998 (CO:HCC-2998), TMI sheet, read-out: NCI-60 screening: Raw GI50): 140 nM | NCI-60 screening: Log(GI50) [7]: -6.61 | NCI-60 screening: Log(RedIndex) [7]: 0.85 | GI50 (cell line HCT-15 (CO:HCT-15), TMI sheet, read-out: NCI-60 screening: Raw GI50): 250 nM | NCI-60 screening: Log(GI50) [8]: -6.73 | NCI-60 screening: Log(RedIndex) [8]: 0.9 | NCI-60 screening: Log(GI50) [9]: -7.28 | NCI-60 screening: Log(RedIndex) [9]: 1.16 | NCI-60 screening: Log(GI50) [10]: -6.69 | NCI-60 screening: Log(RedIndex) [10]: 0.46 | GI50 (cell line HOP-62 (LC:HOP-62), TMI sheet, read-out: NCI-60 screening: Raw GI50): 200 nM | NCI-60 screening: Log(GI50) [11]: -6.62 | NCI-60 screening: Log(RedIndex) [11]: 1.02 | GI50 (cell line HOP-92 (LC:HOP-92), TMI sheet, read-out: NCI-60 screening: Raw GI50): 240 nM | NCI-60 screening: Log(GI50) [12]: -6.65 | NCI-60 screening: Log(RedIndex) [12]: 0.83 | GI50 (cell line HT29 (CO:HT29), TMI sheet, read-out: NCI-60 screening: Raw GI50): 230 nM | NCI-60 screening: Log(GI50) [13]: -6.4 | NCI-60 screening: Log(RedIndex) [13]: 0.23 | NCI-60 screening: Log(GI50) [14]: -5.96 | NCI-60 screening: Log(RedIndex) [14]: 0.27 | NCI-60 screening: Log(GI50) [15]: -6.78 | NCI-60 screening: Log(RedIndex) [15]: 0.82 | GI50 (cell line LOX IMVI (ME:LOX IMVI), TMI sheet, read-out: NCI-60 screening: Raw GI50): 170 nM | NCI-60 screening: Log(GI50) [16]: -6.6 | NCI-60 screening: Log(RedIndex) [16]: 0.78 | GI50 (cell line M14 (ME:M14), TMI sheet, read-out: NCI-60 screening: Raw GI50): 250 nM | NCI-60 screening: Log(GI50) [17]: -6.67 | NCI-60 screening: Log(RedIndex) [17]: 0.87 | NCI-60 screening: Log(GI50) [18]: -7.55 | NCI-60 screening: Log(RedIndex) [18]: 1.05 | GI50 (cell line MCF7 (BR:MCF7), TMI sheet, read-out: NCI-60 screening: Raw GI50): 28 nM | NCI-60 screening: Log(GI50) [19]: -6.08 | NCI-60 screening: Log(RedIndex) [19]: 0.33 | NCI-60 screening: Log(GI50) [20]: -7.16 | NCI-60 screening: Log(RedIndex) [20]: 0.93 | NCI-60 screening: Log(GI50) [21]: -7.34 | NCI-60 screening: Log(RedIndex) [21]: 1.02 | NCI-60 screening: Log(GI50) [22]: -5.99 | NCI-60 screening: Log(RedIndex) [22]: 0.15 | NCI-60 screening: Log(GI50) [23]: -6.79 | NCI-60 screening: Log(RedIndex) [23]: 0.96 | GI50 (cell line RPMI-8226 (LE:RPMI-8226), TMI sheet, read-out: NCI-60 screening: Raw GI50): 160 nM | NCI-60 screening: Log(GI50) (cell line SF-268 (CNS:SF-268), TMI sheet): -6.76 | GI50 (cell line SF-268 (CNS:SF-268), TMI sheet, read-out: NCI-60 screening: Raw GI50): 170 nM | NCI-60 screening: Log(GI50) (cell line SF-295 (CNS:SF-295), TMI sheet): -6.88 | GI50 (cell line SF-295 (CNS:SF-295), TMI sheet, read-out: NCI-60 screening: Raw GI50): 130 nM | NCI-60 screening: Log(GI50) [24]: -6.76 | NCI-60 screening: Log(RedIndex) [24]: 0.88 | GI50 (cell line SF-539 (CNS:SF-539), TMI sheet, read-out: NCI-60 screening: Raw GI50): 170 nM | NCI-60 screening: Log(GI50) [25]: -6.78 | NCI-60 screening: Log(RedIndex) [25]: 0.99 | GI50 (cell line SK-MEL-5 (ME:SK-MEL-5), TMI sheet, read-out: NCI-60 screening: Raw GI50): 170 nM | NCI-60 screening: Log(GI50) [26]: -6.58 | NCI-60 screening: Log(RedIndex) [26]: 1.14 | GI50 (cell line SK-MEL-28 (ME:SK-MEL-28), TMI sheet, read-out: NCI-60 screening: Raw GI50): 260 nM | NCI-60 screening: Log(GI50) [27]: -6.65 | NCI-60 screening: Log(RedIndex) [27]: 1 | NCI-60 screening: Log(GI50) [28]: -7.43 | NCI-60 screening: Log(RedIndex) [28]: 0.87 | NCI-60 screening: Log(GI50) [29]: -6.58 | NCI-60 screening: Log(RedIndex) [29]: 0.85 | GI50 (cell line SW-620 (CO:SW-620), TMI sheet, read-out: NCI-60 screening: Raw GI50): 260 nM | NCI-60 screening: Log(GI50) [30]: -6.54 | NCI-60 screening: Log(RedIndex) [30]: 0.82 | NCI-60 screening: Log(GI50) [31]: -6.86 | NCI-60 screening: Log(RedIndex) [31]: 1.04 | GI50 (cell line U251 (CNS:U251), TMI sheet, read-out: NCI-60 screening: Raw GI50): 140 nM | NCI-60 screening: Log(GI50) [32]: -6.83 | NCI-60 screening: Log(RedIndex) [32]: 1.02 | GI50 (cell line UACC-62 (ME:UACC-62), TMI sheet, read-out: NCI-60 screening: Raw GI50): 150 nM | NCI-60 screening: Log(GI50) [33]: -6.3 | NCI-60 screening: Log(RedIndex) [33]: 0.6 | mean reductive index (mean over NCI cell lines, vs P-CC60): ca. 7 | GI50 (read-out: NCI-60 screening: Raw GI50): 240 nM
